Results taken from patent publication US20180064807A1, “NOVEL LIPIDS AND COMPOSITIONS FOR THE DELIVERY OF THERAPEUTICS” (Arbutus Biopharma Corporation, priority 2008, published 2018).

What was measured:
[1] = system: Factor VII; experiment: In vivo determination of efficacy of novel lipid formulations (FVII knockdown, ED50); design: species or system C57Bl/6 mice; conditions: dose resulting in a 50% reduction in plasma FVII levels compared to control animals; FVII siRNA in cationic lipid/DSPC/cholesterol/PEG-lipid 40/10/40/10; intravenous, 24 h
Procedure: Cationic lipid containing particles were made using the preformed vesicle method. Cationic lipid, DSPC, cholesterol and PEG-lipid were solubilised in ethanol at a molar ratio of 40/10/40/10, respectively. The lipid mixture was added to an aqueous buffer (50 mM citrate, pH 4) with mixing to a final ethanol and lipid concentration of 30% (vol/vol) and 6.1 mg/mL respectively and allowed to equilibrate at room temperature for 2 min before extrusion. The hydrated lipids were extruded through two stacked 80 nm pore-sized filters (Nuclepore) at 22° C. using a Lipex Extruder (Northern Lipids, Vancouver, BC) until a vesicle diameter of 70-90 nm, as determined by Nicomp analysis, was obtained. This generally required 1-3 passes.
The FVII siRNA (solubilised in a 50 mM citrate, pH 4 aqueous solution containing 30% ethanol) was added to the vesicles, pre-equilibrated to 35° C., at a rate of […] with mixing. After a final target siRNA/lipid ratio of 0.06 (wt/wt) was achieved, the mixture was incubated for a further 30 min at 35° C. to allow vesicle re-organization and encapsulation of the FVII siRNA. The ethanol was then removed and the external buffer replaced with PBS (155 mM NaCl, 3 mM Na2HPO4, 1 mM KH2PO4, pH 7.5) by either dialysis or tangential flow diafiltration. The final encapsulated siRNA-to-lipid ratio was determined after removal of unencapsulated siRNA using size-exclusion spin columns or ion exchange spin columns.
Test formulations were initially assessed for their FVII knockdown in female 7-9 week old, 15-25 g, female C57Bl/6 mice at 0.1, 0.3, 1.0 and 5.0 mg/kg with 3 mice per treatment group. All studies included animals receiving either phosphate-buffered saline (PBS, Control group) or a benchmark formulation. Formulations were diluted to the appropriate concentration in PBS immediately prior to testing. Mice were weighed and the appropriate dosing volumes calculated (10 μl/g body weight). Test and benchmark formulations as well as PBS (for Control animals) were administered intravenously via the lateral tail vein. Animals were anesthetised 24 h later with an intraperitoneal injection of Ketamine/Xylazine and 500-700 μl of blood was collected by cardiac puncture into serum separator tubes (BD Microtainer). Blood was centrifuged at 2,000×g for 10 min at 15° C. and serum was collected and stored at −70° C. until analysis. Serum samples were thawed at 37° C. for 30 min, diluted in PBS and aliquoted into 96-well assay plates. Factor VII levels were assessed using a chromogenic assay (Biophen FVII kit, Hyphen BioMed) according to manufacturer's instructions and absorbance measured in microplate reader equipped with a 405 nm wavelength filter. Plasma FVII levels were quantified and ED50s (dose resulting in a 50% reduction in plasma FVII levels compared to control animals) calculated using a standard curve generated from a pooled sample of serum from Control animals. Those formulations of interest showing high levels of FVII knockdown (ED50<<0.1 mg/kg) were re-tested in independent studies at a lower dose range to confirm potency and establish ED50.

[2] = Determination of pKa of formulated lipids (TNS fluorescence); format: physicochemical; conditions: probe 2-(p-toluidino)-6-naphthalenesulfonic acid (TNS), 1 µM final, vesicles of cationic lipid/DSPC/CH/PEG-c-DOMG 40:10:40:10, pH 2 to 11
Procedure: The pKa's of the different ionisable cationic lipids were determined essentially as described (Eastman et al 1992 Biochemistry 31:4262-4268) using the fluorescent probe 2-(p-toluidino)-6-naphthalenesulfonic acid (TNS), which is non-fluorescent in water but becomes appreciably fluorescent when bound to membranes. Vesicles composed of cationic lipid/DSPC/CH/PEG-c-DOMG (40:10:40:10 mole ratio) were diluted to 0.1 mM in buffers (130 mM NaCl, 10 mM CH3COONH4, 10 mM MES, 10 mM HEPES) of various pH's, ranging from 2 to 11. An aliquot of the TNS aqueous solution (1 μM final) was added to the diluted vesicles and after a 30 second equilibration period the fluorescent of the TNS-containing solution was measured at excitation and emission wavelengths of 321 nm and 445 nm, respectively. The pKa of the cationic lipid-containing vesicles was determined by plotting the measured fluorescence against the pH of the solutions and fitting the data to a Sigmodial curve using the commercial graphing program IgorPro.

[3] = system: Factor VII; experiment: In vivo evaluation of FVII siRNA 1661 using cyclic cationic lipid based formulations (FVII assay); design: species or system rodent; conditions: lipid particles with FVII siRNA 1661
Procedure: C57BL/6 mice (Charles River Labs, MA) and Sprague-Dawley rats (Charles River Labs, MA) received either saline or siRNA in desired formulations via tail vein injection at a volume of 0.01 mL/g. At various time points post-administration, animals were anesthesized by isofluorane inhalation and blood was collected into serum separator tubes by retro orbital bleed. Serum levels of Factor VII protein were determined in samples using a chromogenic assay (Coaset Factor VII, DiaPharma Group, OH or Biophen FVII, Aniara Corporation, OH) according to manufacturer protocols. A standard curve was generated using serum collected from saline treated animals. In experiments where liver mRNA levels were assessed, at various time points post-administration, animals were sacrificed and livers were harvested and snap frozen in liquid nitrogen. Frozen liver tissue was ground into powder. Tissue lysates were prepared and liver mRNA levels of Factor VII and apoB were determined using a branched DNA assay (QuantiGene Assay, Panomics, Calif.).
The cyclic cationic lipids 506, 512 and 519-based formulations as described below were prepared, characterized and evaluated in vivo by FVII assay.

SMILES | pKa [2] | ED50 [1] [mg/kg] | knockdown of FVII protein levels in vivo [3]
CCCCC/C=C\C/C=C\CCCCCCCCC1(CCCCCCCCCCCCCCCCCC)O[C@H]2C[C@H](N(C)C)C[C@H]2O1 (stereo partly drawn) [ALNY-108] | 6.55 | 0.75 | 
CCCCC/C=C\C/C=C\CCCCCCCCC1(CCCCCCCC/C=C\C/C=C\CCCCC)O[C@H]2C[C@@H](CN(C)C)C[C@H]2O1 [ALNY-115] |  | 1.0 | 
CCCCC/C=C\C/C=C\CCCCCCCCC1(CCCCCCCC/C=C\C/C=C\CCCCC)O[C@H]2C[C@H](CN(C)C)C[C@H]2O1 [ALNY-116] |  | 1.0 | 
CCCCC/C=C\C/C=C\CCCCCCCCO[C@H]1C[C@H](N(C)C)C[C@H]1OCCCCCCCC/C=C\C/C=C\CCCCC [ALNY-117] |  | >5.0 | 
CCCCC/C=C\C/C=C\CCCCCCCCC1(CCCCCCCC/C=C\C/C=C\CCCCC)O[C@H]2CC[C@H](CN(C)C)C[C@H]2O1 [ALNY-122] |  | 0.55 | 
CCCCC/C=C\C/C=C\CCCCCCCCC1(CCCCCCCC/C=C\C/C=C\CCCCC)O[C@H]2COC(CN(C)C)[C@H]2O1 (stereo partly drawn) [ALNY-144] |  | 0.60 | 
CCCCC/C=C\C/C=C\CCCCCCCCC(CCCCCCCC/C=C\C/C=C\CCCCC)ON=C(C)CCN(C)C [ALNY-149] | 5.81 | 0.1 | 
CCCCC/C=C\C/C=C\CCCCCCCC1OC2(CCN(C)CC2)OC1CCCCCCC/C=C\C/C=C\CCCCC (stereo not drawn) [ALNY-156] | 6.08 |  | 
CCCCC/C=C\C/C=C\CCCCCCCC1OC2(CCC(N(C)C)CC2)OC1CCCCCCC/C=C\C/C=C\CCCCC (stereo not drawn) [ALNY-158] |  | 1.40 | 
CCCCC/C=C\C/C=C\CCCCCCCCC1(CCCCCCCC/C=C\C/C=C\CCCCC)O[C@@H]2CC[C@H](N(C)C)C[C@H]2O1 [ALNY-169] |  | 2.60 | 
CCCCC/C=C\C/C=C\CCCCCCCCC(CCCCCCCC/C=C\C/C=C\CCCCC)=NNCCN(C)C [ALNY-175] |  | 2.7 | 
CCCCC/C=C\C/C=C\CCCCCCCCC(CCCCCCCC/C=C\C/C=C\CCCCC)NC(=O)OCCCN(C)C [ALNY-192] | 7.21 | 2.1 | 
CCCCC/C=C\C/C=C\CCCCCCCCC(CCCCCCCC/C=C\C/C=C\CCCCC)CNC(=O)OCCCN(C)C [ALNY-200] | 7.57 | >5.00 | 
CCCCC/C=C\C/C=C\CCCCCCCCC(CCCCCCCC/C=C\C/C=C\CCCCC)CNC(=O)OCCN(C)C [ALNY-203] | 7.07 | 5.0 | 
CCCCC/C=C\C/C=C\CCCCCCCCC1(CCCCCCCC/C=C\C/C=C\CCCCC)O[C@H]2C[C@@H](N(C)C)C[C@H]2O1 [Compound 519] |  |  | almost complete knockdown

Second part, led by results:

pKa [2] | SMILES | ED50 [1] [mg/kg] | knockdown of FVII protein levels in vivo [3]
6.4 | CCCCC/C=C\C/C=C\CCCCCCCCC1(CCCCCCCC/C=C\C/C=C\CCCCC)O[C@H]2C[C@H](N(C)C)C[C@H]2O1 [ALNY-100] | 0.3 | 
6.43 | CCCCC/C=C\C/C=C\CCCCCCCCC1(CCCCCCCC/C=C\C/C=C\CCCCC)O[C@H]2C[C@@H](N(C)C)C[C@H]2O1 [ALNY-101] | 0.1 | 
7.3 | CCCCC/C=C\C/C=C\CCCCCCCCC1(CCCCCCCC/C=C\C/C=C\CCCCC)O[C@H]2C[C@@H](N(C)C)CC[C@H]2O1 [ALNY-102] | 2.0 | 
6.98 | CCCCC/C=C\C/C=C\CCCCCCCCC1(CCCCCCCC/C=C\C/C=C\CCCCC)O[C@H]2C[C@H](N(C)C)CC[C@H]2O1 [ALNY-103] | 2.5 | 
5.65 | CCCCC/C=C\C/C=C\CCCCCCCCC1(CCCCCCCC/C=C\C/C=C\CCCCC)O[C@H]2CN(C)C[C@H]2O1 [ALNY-104] | 2.5 | 
5.6 | CCCCC/C=C\C/C=C\CCCCCCCCC1(CCCCCCCC/C=C\C/C=C\CCCCC)O[C@H]2CCN(C)C[C@H]2O1 [ALNY-105] | 1.5 | 
6.85 | CCCCC/C=C\C/C=C\CCCCCCCCC1(CCCCCCCC/C=C\C/C=C\CCCCC)O[C@H]2CCN(C)CC[C@H]2O1 [ALNY-106] | 0.3 | 
6.63 | CCCCC/C=C\C/C=C\CCCCCCCCC1(CCCCCCCC/C=C\CCCCCCCC)O[C@H]2C[C@H](N(C)C)C[C@H]2O1 (stereo partly drawn) [ALNY-107] | 0.25 | 
6.75 | CCCCC/C=C\C/C=C\CCCCCCCCC1(CCCCCCCCCCCC)O[C@H]2C[C@H](N(C)C)C[C@H]2O1 (stereo partly drawn) [ALNY-109] | 2.0 | 
6.5 | CCCCC/C=C\C/C=C\CCCCCCCCC1(CCCCCCCCCC)O[C@H]2C[C@H](N(C)C)C[C@H]2O1 (stereo partly drawn) [ALNY-110] | 2.0 | 
6.6 | CCCCC/C=C\C/C=C\CCCCCCCCC1(CCCCCCCC/C=C\C/C=C\CCCCC)O[C@H]2CC[C@@H](CN(C)C)C[C@H]2O1 [ALNY-121] | 0.5 | 
4.95 | CCCCC/C=C\C/C=C\CCCCCCCCC1(CCCCCCCC/C=C\C/C=C\CCCCC)OCC(CCN(C)Cc2cccnc2)O1 (stereo not drawn) [ALNY-140] | >5.0 | 
6.62 | CCCCC/C=C\C/C=C\CCCCCCCCC(CCCCCCCC/C=C\C/C=C\CCCCC)CN(C)CCN(C)C [ALNY-141] | 0.14 | 
6.53 | CCCCC/C=C\C/C=C\CCCCCCCCC1(CCCCCCCC/C=C\C/C=C\CCCCC)OCC2(CCN(C)CC2)O1 [ALNY-148] | 0.3 | 
5.5 | CCCCC/C=C\C/C=C\CCCCCCCCC1(CCCCCCCC/C=C\C/C=C\CCCCC)O[C@H]2[C@@H](OC)OC(CN(C)C)[C@H]2O1 (stereo partly drawn) [ALNY-151] | >5.00 | 
6.6 | CCCCC/C=C\C/C=C\CCCCCCCC1OC(C)(CCN(C)C)OC1CCCCCCC/C=C\C/C=C\CCCCC (stereo not drawn) [ALNY-152] | 0.15 | 
5.18 | CCCCC/C=C\C/C=C\CCCCCCCCC(CCCCCCCC/C=C\C/C=C\CCCCC)SSCCN(C)C [ALNY-160] | 2.00 | 
6.49 | CCCCC/C=C\C/C=C\CCCCCCCCC(CCCCCCCC/C=C\C/C=C\CCCCC)OC(=O)NCCN(C)C [ALNY-190] | 0.47 | 
8.02 | CCCCC/C=C\C/C=C\CCCCCCCCC(CCCCCCCC/C=C\C/C=C\CCCCC)CNC(=O)CCN(C)C [ALNY-201, 3-(dimethylamino)-N-((11Z,14Z)-2-((9Z,12Z)-octadeca-9,12-dienyl)icosa-11,14-dienyl)propanamide] | >5.0 | 
6.52 | CCCCC/C=C\C/C=C\CCCCCCCCC(CCCCCCCC/C=C\C/C=C\CCCCC)NC(=O)OCCN(C)C [ALNY-202] | 0.12 | 
